Measurements reported in patent US9708314B2, “Heterocyclic amide compound” (NISSAN CHEMICAL INDUSTRIES, LTD., priority 2013, dated 2017).

Assays:
Format in all cases: in vivo
[1] = system: transplanted Oryza sativa; experiment: Test Example 1: effect on crop, application before weed generation in submerged conditions; details: Application herbicide amount 320 g/ha; Seventeenth Table
Source text: (§1) [Test Example 1] Herbicidal Activity Test by Application Before Weed Generation in Submerged Conditions After alluvial soil was placed into 1/10000 are of Wagner pot, water was poured and mixed to form a submerged condition having a water depth of 4 cm. Seeds of Echinochloa oryzacola Vasing., Scirpus juncoides, and Monochoria vaginalis were sowed in a mixed manner in the above pot and thereafter 2.5 leaf stage Oryza sativa seedling was transplanted. On the day of sowing seeds, the emulsion agent containing the compound of the present invention prepared in accordance with Formulation Example 2 was diluted with water so as to be a predetermined herbicide amount and the diluted compound was applied to the surface of the water. The pot was placed in a greenhouse of 25° C. to 30° C. to grow plant. Three weeks after the herbicide application, effects on each plant were investigated in accordance with the following criteria. Criteria 5 Herbicidal ratio of 90% or more (almost completely withered) 4 Herbicidal ratio of 70% or more and less than 90% 3 Herbicidal ratio of 40% or more and less than 70% 2 Herbicidal ratio of 20% or more and less than 40% 1 Herbicidal ratio of 5% or more and less than 20% 0 Herbicidal ratio of 5% or less (almost no effect) A: Echinochloa oryzicola Vasing., B: Scirpus juncoides, C: Monochoria vaginalis, D: Leptochloa chinensis, E: Cyperus difformis, F: Digitaria ciliaris, G: Setaria viridis, H: Echinochloa crus-galli var. crus-galli, I: Avena fatua, J: Alopecurus myosuroides, K: Lolium multiflorum Lam., L: Apera spica-venti., M: Abutilon theophrasti, N: Amaranthus retroflexus, O: Chenopodium album, P: Stellaria media, Q: Galium spurium, R: Veronica persica, a: transplanted Oryza sativa, b: directly sowed Oryza sativa, c: Zea mays, d: Glycine max, e: Triticum aestivum, f: Beta vulgaris ssp. vulgaris, and g: Brassica campestris L. The application herbicide amount (g/ha) means an amount that a concentration is adjusted so that, when an application amount is converted into per hectare (1 ha), the herbicide is applied by the number of grams (g) of the described value.

Alopecurus myosuroides = experiment: Test Example 4: herbicidal effect by application to foliage (diluvial soil, plastic box); details: for J (Alopecurus myosuroides) herbicidal effect: application to foliage, application herbicide amount 320 g/ha; for J: Application herbicide amount 320 g/ha
Procedure, shortened: (§2)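 Scores run from 0 (herbicidal ratio ≤5%) to 5 (≥90%, almost fully withered) and were assessed three weeks after foliar spraying. Seedlings had been raised for 14 days at 25-30° C in sterilized diluvial soil before treatment, with the emulsion diluted in water to the stated g/ha dose.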

Avena fatua = experiment: as above; details: for I (Avena fatua) herbicidal effect: application to foliage, application herbicide amount 320 g/ha; for I: Application herbicide amount 320 g/ha
Procedure, shortened: as §2

Digitaria ciliaris = experiment: as above; details: for F (Digitaria ciliaris) herbicidal effect: application to foliage, application herbicide amount 320 g/ha; for F: Application herbicide amount 320 g/ha
Procedure, shortened: as §2

Apera spica-venti. = experiment: as above; details: for L (Apera spica-venti.) herbicidal effect: application to foliage, application herbicide amount 320 g/ha; for L: Application herbicide amount 320 g/ha
Procedure, shortened: as §2

Chenopodium album = experiment: as above; details: for O (Chenopodium album) herbicidal effect: application to foliage, application herbicide amount 320 g/ha; for O: Application herbicide amount 320 g/ha
Procedure, shortened: as §2

Setaria viridis = experiment: as above; details: for G (Setaria viridis) herbicidal effect: application to foliage, application herbicide amount 320 g/ha; for G: Application herbicide amount 320 g/ha
Procedure, shortened: as §2

[2] = system: Echinochloa crus-galli var. crus-galli; experiment: as above; details: for H (Echinochloa crus-galli var. crus-galli) herbicidal effect: application to foliage, application herbicide amount 320 g/ha; for H: Application herbicide amount 320 g/ha
Procedure, shortened: as §2

Lolium multiflorum Lam. = experiment: as above; details: for K (Lolium multiflorum Lam.) herbicidal effect: application to foliage, application herbicide amount 320 g/ha; for K: Application herbicide amount 320 g/ha
Procedure, shortened: as §2

Galium spurium = experiment: as above; details: for Q (Galium spurium) herbicidal effect: application to foliage, application herbicide amount 320 g/ha; for Q: Application herbicide amount 320 g/ha
Procedure, shortened: as §2

Abutilon theophrasti = experiment: as above; details: for M (Abutilon theophrasti) herbicidal effect: application to foliage, application herbicide amount 320 g/ha; for M: Application herbicide amount 320 g/ha
Procedure, shortened: as §2

Monochoria vaginalis = experiment: Test Example 1: herbicidal activity, application before weed generation in submerged conditions; details: Application herbicide amount 320 g/ha; Seventeenth Table
Source text: as §1

Scirpus juncoides = experiment: as above; details: Application herbicide amount 320 g/ha; Seventeenth Table
Source text: as §1

[3] = system: Echinochloa oryzacola Vasing.; experiment: as above; details: Application herbicide amount 320 g/ha; Seventeenth Table
Source text: as §1

Veronica persica = experiment: Test Example 4: herbicidal effect by application to foliage (diluvial soil, plastic box)
Procedure, shortened: as §2

Row | Compound | a: transplanted Oryza sativa (effect on crop grade) [1] | J (Alopecurus myosuroides) herbicidal effect (Alopecurus myosuroides) | I (Avena fatua) herbicidal effect (Avena fatua) | F (Digitaria ciliaris) herbicidal effect (Digitaria ciliaris) | L (Apera spica-venti.) herbicidal effect (Apera spica-venti.) | O (Chenopodium album) herbicidal effect (Chenopodium album) | G (Setaria viridis) herbicidal effect (Setaria viridis) | C: Monochoria vaginalis (herbicidal effect grade) (Monochoria vaginalis) | B: Scirpus juncoides (herbicidal effect grade) (Scirpus juncoides) | A: Echinochloa oryzicola Vasing. (herbicidal effect grade) [3] | J (Alopecurus myosuroides) | I (Avena fatua) | F (Digitaria ciliaris) | L (Apera spica-venti.) | O (Chenopodium album) | G (Setaria viridis) | H [2] | K (Lolium multiflorum Lam.) | Q (Galium spurium) | M (Abutilon theophrasti) | other results
1 | Cc1nnc(NC(=O)c2ccc(C(F)(F)F)n3c(C)nnc23)o1 [1-002] | 0 (Herbicidal ratio of 5% or less (almost no effect)) | 1 (Herbicidal ratio of 5% or more and less than 20%) | 3 (Herbicidal ratio of 40% or more and less than 70%) | 4 (Herbicidal ratio of 70% or more and less than 90%) | 1 (Herbicidal ratio of 5% or more and less than 20%) | 5 (Herbicidal ratio of 90% or more (almost completely withered)) | 2 (Herbicidal ratio of 20% or more and less than 40%) | 0 (Herbicidal ratio of 5% or less (almost no effect)) | 1 (Herbicidal ratio of 5% or more and less than 20%) | 2 (Herbicidal ratio of 20% or more and less than 40%) |  |  |  |  |  |  |  |  |  |  | H (Echinochloa crus-galli var. crus-galli) herbicidal effect [2]: 5 (Herbicidal ratio of 90% or more (almost completely withered)); K (Lolium multiflorum Lam.) herbicidal effect (Lolium multiflorum Lam.): 2 (Herbicidal ratio of 20% or more and less than 40%); Q (Galium spurium) herbicidal effect (Galium spurium): 4 (Herbicidal ratio of 70% or more and less than 90%); M (Abutilon theophrasti) herbicidal effect (Abutilon theophrasti): 3 (Herbicidal ratio of 40% or more and less than 70%)
2 | Cc1nnc(NC(=O)c2ccc(C(F)(F)F)n3c(C4CC4)nnc23)o1 [1-010] | 0 (Herbicidal ratio of 5% or less (almost no effect)) | 2 (Herbicidal ratio of 20% or more and less than 40%) | 3 (Herbicidal ratio of 40% or more and less than 70%) | 3 (Herbicidal ratio of 40% or more and less than 70%) | 2 (Herbicidal ratio of 20% or more and less than 40%) | 5 (Herbicidal ratio of 90% or more (almost completely withered)) | 3 (Herbicidal ratio of 40% or more and less than 70%) |  | 3 (Herbicidal ratio of 40% or more and less than 70%) | 5 (Herbicidal ratio of 90% or more (almost completely withered)) |  |  |  |  |  |  |  |  |  |  | R (Veronica persica) herbicidal effect (Veronica persica; application to foliage, application herbicide amount 320 g/ha): 5 (Herbicidal ratio of 90% or more (almost completely withered)); H (Echinochloa crus-galli var. crus-galli) herbicidal effect [2]: 4 (Herbicidal ratio of 70% or more and less than 90%); K (Lolium multiflorum Lam.) herbicidal effect (Lolium multiflorum Lam.): 1 (Herbicidal ratio of 5% or more and less than 20%); Q (Galium spurium) herbicidal effect (Galium spurium): 1 (Herbicidal ratio of 5% or more and less than 20%); M (Abutilon theophrasti) herbicidal effect (Abutilon theophrasti): 5 (Herbicidal ratio of 90% or more (almost completely withered))
3 | COc1ccc(Cc2nnc3c(C(=O)Nc4nnc(C)o4)ccc(C(F)(F)F)n23)cc1 [1-069] | 0 (Herbicidal ratio of 5% or less (almost no effect)) |  |  |  |  |  |  | 3 (Herbicidal ratio of 40% or more and less than 70%) | 4 (Herbicidal ratio of 70% or more and less than 90%) | 5 (Herbicidal ratio of 90% or more (almost completely withered)) | 2 (Herbicidal ratio of 20% or more and less than 40%) | 2 (Herbicidal ratio of 20% or more and less than 40%) | 5 (Herbicidal ratio of 90% or more (almost completely withered)) | 4 (Herbicidal ratio of 70% or more and less than 90%) | 5 (Herbicidal ratio of 90% or more (almost completely withered)) | 5 (Herbicidal ratio of 90% or more (almost completely withered)) | 5 (Herbicidal ratio of 90% or more (almost completely withered)) | 2 (Herbicidal ratio of 20% or more and less than 40%) | 3 (Herbicidal ratio of 40% or more and less than 70%) | 3 (Herbicidal ratio of 40% or more and less than 70%) | 
4 | CSC(C)c1nnc2c(C(=O)Nc3nnc(C)o3)ccc(C(F)(F)F)n12 (stereo not shown) [1-078] | 4 (Herbicidal ratio of 70% or more and less than 90%) |  |  |  |  |  |  | 3 (Herbicidal ratio of 40% or more and less than 70%) | 4 (Herbicidal ratio of 70% or more and less than 90%) | 4 (Herbicidal ratio of 70% or more and less than 90%) | 3 (Herbicidal ratio of 40% or more and less than 70%) | 4 (Herbicidal ratio of 70% or more and less than 90%) | 5 (Herbicidal ratio of 90% or more (almost completely withered)) | 4 (Herbicidal ratio of 70% or more and less than 90%) | 5 (Herbicidal ratio of 90% or more (almost completely withered)) | 5 (Herbicidal ratio of 90% or more (almost completely withered)) | 5 (Herbicidal ratio of 90% or more (almost completely withered)) | 3 (Herbicidal ratio of 40% or more and less than 70%) |  | 5 (Herbicidal ratio of 90% or more (almost completely withered)) | 
5 | Cc1nnc(NC(=O)c2ccc(C(F)(F)F)n3c(C(C)[S+](C)[O-])nnc23)o1 (stereo not shown) [1-079] | 4 (Herbicidal ratio of 70% or more and less than 90%) |  |  |  |  |  |  | 3 (Herbicidal ratio of 40% or more and less than 70%) | 4 (Herbicidal ratio of 70% or more and less than 90%) | 4 (Herbicidal ratio of 70% or more and less than 90%) | 2 (Herbicidal ratio of 20% or more and less than 40%) | 4 (Herbicidal ratio of 70% or more and less than 90%) | 5 (Herbicidal ratio of 90% or more (almost completely withered)) |  | 5 (Herbicidal ratio of 90% or more (almost completely withered)) | 5 (Herbicidal ratio of 90% or more (almost completely withered)) | 5 (Herbicidal ratio of 90% or more (almost completely withered)) | 3 (Herbicidal ratio of 40% or more and less than 70%) | 4 (Herbicidal ratio of 70% or more and less than 90%) | 5 (Herbicidal ratio of 90% or more (almost completely withered)) | 
6 | CCCSc1nnc2c(C(=O)Nc3nnc(C)o3)ccc(C(F)(F)F)n12 [1-087] | 0 (Herbicidal ratio of 5% or less (almost no effect)) |  |  |  |  |  |  | 3 (Herbicidal ratio of 40% or more and less than 70%) |  | 5 (Herbicidal ratio of 90% or more (almost completely withered)) | 3 (Herbicidal ratio of 40% or more and less than 70%) | 3 (Herbicidal ratio of 40% or more and less than 70%) | 5 (Herbicidal ratio of 90% or more (almost completely withered)) | 2 (Herbicidal ratio of 20% or more and less than 40%) | 5 (Herbicidal ratio of 90% or more (almost completely withered)) | 5 (Herbicidal ratio of 90% or more (almost completely withered)) | 5 (Herbicidal ratio of 90% or more (almost completely withered)) | 1 (Herbicidal ratio of 5% or more and less than 20%) | 1 (Herbicidal ratio of 5% or more and less than 20%) | 5 (Herbicidal ratio of 90% or more (almost completely withered)) | R (Veronica persica; Application herbicide amount 320 g/ha): 4 (Herbicidal ratio of 70% or more and less than 90%)
